Assay results reported in KR20230138688A, “Halenaquinol sulfate를 유효성분으로 포함하는 베타아밀로이드 응집으로 유발되는 질환의 예방 또는 치료용 약학적 조성물” (priority 2022, dated 2023).

What was measured:
[1] = biological target: T1, beta-amyloid Aβ42 aggregates (베타아밀로이드 응집체) (Homo sapiens, UniProt P05067); experiment: Disaggregation of preformed beta-amyloid (Aβ42) aggregates, Thioflavin T fluorescence; format: biochemical; conditions: Aβ42 pre-incubated 24 h, then 24 h with compound at 37 °C; Aβ42 10 μM; ThT 45 μM
T1 construct: Amyloid β 1-42 (Aβ42) 단백질은 DMSO에 1 mM으로 녹여

[2] = tested on: inhibition of synaptic plasticity (LTP) by beta-amyloid (베타아밀로이드에 의한 시냅스 가소성(LTP) 억제); experiment: Improvement of beta-amyloid-induced inhibition of synaptic plasticity (LTP), electrophysiology in hippocampal slices; conditions: ICR mouse hippocampal slices; halenaquinol sulfate 10 μM 30 min, then with oligomeric beta-amyloid 1 μM for 2 h; HFS
[3] = biological target: Acetylcholinesterase (AChE) (Electrophorus electricus, UniProt O42275); experiment: Acetylcholinesterase (AChE) inhibition, Ellman method; format: biochemical; conditions: acetylthiocholine substrate, DTNB, 405 nm, pH 8.2
[4] = biological target: T2, beta-amyloid Aβ42 (베타아밀로이드(Aβ)42) (Homo sapiens, UniProt P05067); experiment: Inhibition of beta-amyloid (Aβ42) aggregation, Thioflavin T fluorescence; format: biochemical; conditions: Aβ42 10 μM; 37 °C, 24 h; ThT 45 μM; 485 nm / 528 nm
T2 construct: Amyloid β 1-42 (Aβ42) 단백질은 DMSO에 1 mM으로 녹여
T2 sequence (P05067 672-713): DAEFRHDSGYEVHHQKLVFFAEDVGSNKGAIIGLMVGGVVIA

Sequence of Acetylcholinesterase (AChE) (O42275 whole entry): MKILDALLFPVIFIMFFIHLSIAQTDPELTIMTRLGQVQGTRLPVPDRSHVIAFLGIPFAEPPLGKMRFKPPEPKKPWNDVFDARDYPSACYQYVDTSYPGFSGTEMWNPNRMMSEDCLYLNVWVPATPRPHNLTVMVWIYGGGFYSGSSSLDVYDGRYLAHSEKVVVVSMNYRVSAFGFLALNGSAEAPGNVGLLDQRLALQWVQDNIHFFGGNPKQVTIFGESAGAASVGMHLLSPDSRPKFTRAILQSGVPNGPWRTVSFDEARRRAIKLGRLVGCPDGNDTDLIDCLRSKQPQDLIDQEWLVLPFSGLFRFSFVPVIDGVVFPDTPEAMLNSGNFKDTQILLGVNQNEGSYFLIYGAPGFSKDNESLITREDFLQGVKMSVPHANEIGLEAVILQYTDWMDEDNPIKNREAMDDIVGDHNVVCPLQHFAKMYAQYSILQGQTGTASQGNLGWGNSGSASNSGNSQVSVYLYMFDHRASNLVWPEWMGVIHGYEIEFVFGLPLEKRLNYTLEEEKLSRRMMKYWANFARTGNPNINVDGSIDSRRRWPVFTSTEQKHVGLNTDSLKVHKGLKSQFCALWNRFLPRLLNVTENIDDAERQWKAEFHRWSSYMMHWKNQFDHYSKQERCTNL
T1 sequence (P05067 672-713): as the sequence (P05067 672-713) above

With Halenaquinol sulfate the “disaggregation of already aggregated beta-amyloid” value [1] was “농도 의존적으로 이미 응집된 베타아밀로이드 응집체를 분해함”, the “suppression of the effect of oligomeric beta-amyloid on LTP” value [2] was “베타아밀로이드의 효과를 유의적으로 억제” and the IC50 [3] was 17.9 µM. The “inhibition of acetylcholinesterase activity” value [3] was “농도의존적으로 acetylcholinesterase 활성을 저해” and the “inhibitory activity against beta-amyloid aggregation” value [4] was “농도 의존적으로 베타아밀로이드(10 μM)의 응집에 대해 저해활성”.
